Patent US9102591B2, “Benzamides” (H. Lundbeck A/S, priority 2012, dated 2015)
Where two headings read alike, the source gives them in different places.

Target: P2X7 receptor (Homo sapiens (Human), UniProt Q99572)
Test: P2X7 FLIPR assay (BzATP-stimulated calcium fluorescence, antagonist IC50)
Assay type: cell-based
Summary of the method: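 Cells expressing P2X7 receptor (human, rat or mouse), plated 24 hours earlier in low-serum medium, loaded with Fluo-4 NW dye (30 min 37° C, 30 min room temperature).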

P2X7 receptor, sequence (Q99572 whole entry): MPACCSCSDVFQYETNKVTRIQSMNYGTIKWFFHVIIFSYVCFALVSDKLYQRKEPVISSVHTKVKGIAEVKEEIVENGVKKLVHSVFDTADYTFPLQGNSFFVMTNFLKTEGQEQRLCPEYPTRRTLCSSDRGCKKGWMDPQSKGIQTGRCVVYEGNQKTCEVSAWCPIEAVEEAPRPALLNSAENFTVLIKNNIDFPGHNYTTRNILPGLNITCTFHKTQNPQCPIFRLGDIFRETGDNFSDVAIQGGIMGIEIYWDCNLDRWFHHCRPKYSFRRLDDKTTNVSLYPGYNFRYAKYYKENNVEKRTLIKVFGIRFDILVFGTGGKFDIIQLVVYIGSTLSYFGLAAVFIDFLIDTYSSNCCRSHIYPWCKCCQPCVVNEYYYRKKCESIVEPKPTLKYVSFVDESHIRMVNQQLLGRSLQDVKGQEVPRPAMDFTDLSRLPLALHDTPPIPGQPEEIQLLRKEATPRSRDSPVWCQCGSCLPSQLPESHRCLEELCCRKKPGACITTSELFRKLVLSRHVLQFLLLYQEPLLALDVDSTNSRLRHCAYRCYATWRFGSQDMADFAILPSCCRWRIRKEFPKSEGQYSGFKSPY

Row | SMILES | IC50 | IC50 (listed as (+)2-chloro-N-[3-cyclopropyl-2-[6-(trifluoromethyl)-3-pyridyl]propyl]benzamide)
1 | O=C(NCC1(c2ccc(F)nc2)CCC(F)(F)CC1)c1cc(Cl)ccc1Cl [2,5-dichloro-N-((4,4-difluoro-1-(6-fluoropyridin-3-yl)cyclohexyl)methyl)benzamide] | 0.0023 µM | –
2 | O=C(NCC(CC1CC1)c1cnc(C(F)(F)F)nc1)c1c(F)cccc1Cl (stereo not drawn) [2-chloro-N-(3-cyclopropyl-2-(2-(trifluoromethyl)pyrimidin-5-] [2-chloro-N-(3-cyclopropyl-2-(2-(trifluoromethyl)pyrimidin-5-yl)propyl)-6-fluorobenzamide] | 0.022 µM | –
3 | CC(C)(O)c1ccc(C2(CNC(=O)c3cccc(Cl)c3Cl)CCC(F)(F)CC2)cn1 [2,3-dichloro-N-[[4,4-difluoro-1-[6-(1-hydroxy-1-methyl-ethyl)-3-pyridyl]cyclohexyl]methyl]benzamide] | 0.023 µM | –
4 | O=C(NCC(c1ccccc1)c1ccnnc1)c1cccc(Cl)c1Cl (stereo not drawn) [2,3-dichloro-N-(2-phenyl-2-pyridazin-4-yl-ethyl)benzamide] | 0.094 µM | –
5 | O=C(NCC(c1ccncc1)c1ccc(C(F)(F)F)nc1)c1ccccc1Cl (stereo not drawn) [2-chloro-N-[2-(4-pyridyl)-2-[6-(trifluoromethyl)-3-pyridyl]ethyl]benzamide] | 0.011 µM | –
6 | O=C(NCC1(c2ccc(Cl)cc2)CCOCC1)c1cc(Br)ccc1Cl [5-Bromo-2-chloro-N-[4-(4-chloro-phenyl)-tetrahydro-pyran-4-ylmethyl]-benzamide] | 0.13 µM | –
7 | O=C(NCC1(c2ccc(Cl)cc2)CCOCC1)c1c(Cl)cccc1Cl [2,6-Dichloro-N-[4-(4-chloro-phenyl)-tetrahydro-pyran-4-ylmethyl]-benzamide] | 0.36 µM | –
8 | O=C(NCC(c1ccc(F)cc1)c1ccc(C(F)(F)F)nc1)c1cccc(F)c1Cl (single isomer, unassigned; (+)) [(+)2-chloro-3-fluoro-N-[2-(4-fluorophenyl)-2-[6-(trifluorome] [(+)2-chloro-3-fluoro-N-[2-(4-fluorophenyl)-2-[6-(trifluoromethyl)-3-pyridyl]ethyl]benzamide] | 0.0046 µM | –
9 | O=C(NCC1(c2cnc(C(F)(F)F)nc2)CCOCC1)c1c(F)cccc1Cl [2-chloro-6-fluoro-N-[[4-[2-(trifluoromethyl)pyrimidin-5-yl]tetrahydropyran-4-yl]methyl]benzamide] | 1.6 µM | –
10 | O=C(NCC(CC1(C(F)(F)F)CC1)c1ccc(C(F)(F)F)nc1)c1ccccc1Cl (stereo not drawn) [2-chloro-N-[3-[1-(trifluoromethyl)cyclopropyl]-2-[6-(trifluo] [2-chloro-N-[3-[1-(trifluoromethyl)cyclopropyl]-2-[6-(trifluoromethyl)-3-pyridyl]propyl]benzamide] | 0.0021 µM | –
11 | COCCC(CNC(=O)c1cccc(Cl)c1Cl)c1cnc(C(F)(F)F)nc1 (stereo not drawn) [2,3-dichloro-N-[4-methoxy-2-[2-(trifluoromethyl)pyrimidin-5-yl]butyl]benzamide] | 2.2 µM | –
12 | O=C(NCC(CC1CC1)c1ccc(C(F)(F)F)nc1)c1cccc(F)c1Cl (stereo not drawn) [2(−)-chloro-N-[3-cyclopropyl-2-[6-(trifluoromethyl)-3-pyridy] [2(−)-chloro-N-[3-cyclopropyl-2-[6-(trifluoromethyl)-3-pyridyl]propyl]-3-fluoro-benzamide] | 0.0029 µM | –
13 | O=C(NCC1(c2cccnc2)CCCC1)c1cccc(Cl)c1Cl [2,3-Dichloro-N-(1-pyridin-3-yl-cyclopentylmethyl)-benzamide] | 2.2 µM | –
14 | O=C(NCC(CC1(C(F)F)CC1)c1ccc(C2CC2)nc1)c1cccc(Cl)c1Cl (stereo not drawn) [2,3-dichloro-N-[2-(6-cyclopropyl-3-pyridyl)-3-[1-(difluoromethyl)cyclopropyl]propyl]benzamide] | 0.00076 µM | –
15 | CC(CNC(=O)c1cccc(Cl)c1Cl)(CC1CC1)c1cnc(C(F)(F)F)nc1 (single isomer, unassigned; (+)) [(+)2,3-dichloro-N-[3-cyclopropyl-2-methyl-2-[2-(trifluoromethyl)pyrimidin-5-yl]propyl]benzamide] | 0.074 µM | –
16 | Cc1ccccc1C(=O)NCC1(c2ccc(Cl)cc2)CCN(C)CC1 [N-[4-(4-Chloro-phenyl)-1-methyl-piperidin-4-ylmethyl]-2-methyl-benzamide] | 0.06 µM | –
17 | Cc1cccc(C(=O)NCC2(c3ccc(C(F)(F)F)nc3)CCC(F)(F)CC2)c1Cl [2-chloro-N-((4,4-difluoro-1-(6-(trifluoromethyl)pyridin-3-yl)cyclohexyl)methyl)-3-methylbenzamide] | 0.00054 µM | –
18 | O=C(NCC(CC1(C(F)(F)F)CC1)c1ccc(C(F)(F)F)nc1)c1cccc(F)c1Cl (single isomer, unassigned; (+)) [(+)2-chloro-3-fluoro-N-[3-[1-(trifluoromethyl)cyclopropyl]-2] [(+)2-chloro-3-fluoro-N-[3-[1-(trifluoromethyl)cyclopropyl]-2-[6-(trifluoromethyl)-3-pyridyl]propyl]benzamide] | 0.0072 µM | –

Now from value to compound:

Row | IC50 | IC50 (listed as (+)2-chloro-N-[3-cyclopropyl-2-[6-(trifluoromethyl)-3-pyridyl]propyl]benzamide) | SMILES
19 | 0.0032 µM | – | O=C(NCC(CC1CC1)c1cnc(C(F)(F)F)nc1)c1ccccc1Cl (single isomer, unassigned; (-)) [(−)2-chloro-N-[3-cyclopropyl-2-[2-(trifluoromethyl)pyrimidin] [(−)2-chloro-N-[3-cyclopropyl-2-[2-(trifluoromethyl)pyrimidin-5-yl]propyl]benzamide]
20 | 0.74 µM | – | O=C(NCC(CC1CC1)c1ccc(C(F)(F)F)nc1)c1c(F)cccc1F (single isomer, unassigned; (+)) [(+)N-[3-cyclopropyl-2-[6-(trifluoromethyl)-3-pyridyl]propyl]] [(+)N-[3-cyclopropyl-2-[6-(trifluoromethyl)-3-pyridyl]propyl]-2,6-difluoro-benzamide]
21 | 0.032 µM | – | O=C(NCC(CC1(C(F)(F)F)CC1)c1ccc(C(F)(F)F)nc1)c1ccccc1Cl (single isomer, unassigned; (-)) [(−)2-chloro-N-[3-[1-(trifluoromethyl)cyclopropyl]-2-[6-(trif] [(−)2-chloro-N-[3-[1-(trifluoromethyl)cyclopropyl]-2-[6-(trifluoromethyl)-3-pyridyl]propyl]benzamide]
22 | 0.021 µM | – | O=C(NCC(CC1(C(F)(F)F)CC1)c1cnc(C(F)(F)F)nc1)c1cccc(Cl)c1Cl (single isomer, unassigned; (-)) [(−)2,3-dichloro-N-[3-[1-(trifluoromethyl)cyclopropyl]-2-[2-(] [(−)2,3-dichloro-N-[3-[1-(trifluoromethyl)cyclopropyl]-2-[2-(trifluoromethyl)pyrimidin-5-yl]propyl]benzamide]
23 | 0.00031 µM | – | O=C(NCC(CC1CC1)c1ccc(C(F)(F)F)nc1)c1cccc(Cl)c1Cl (single isomer, unassigned; (-)) [(−)2,3-dichloro-N-[3-cyclopropyl-2-[6-(trifluoromethyl)-3-py] [(−)2,3-dichloro-N-[3-cyclopropyl-2-[6-(trifluoromethyl)-3-pyridyl]propyl]benzamide]
24 | 0.012 µM | – | COc1cccc(C(=O)NCC(CC2CC2)c2ccc(C(F)(F)F)nc2)c1Cl (single isomer, unassigned; (+)) [(+)2-chloro-N-[3-cyclopropyl-2-[6-(trifluoromethyl)-3-pyridy] [(+)2-chloro-N-[3-cyclopropyl-2-[6-(trifluoromethyl)-3-pyridyl]propyl]-3-methoxy-benzamide]
25 | 0.0031 µM | – | O=C(NCC(c1ccc(F)cc1)c1ccc(C(F)(F)F)nc1)c1ccccc1Cl (single isomer, unassigned; (-)) [(−)2-chloro-N-[2-(4-fluorophenyl)-2-[6-(trifluoromethyl)-3-p] [(−)2-chloro-N-[2-(4-fluorophenyl)-2-[6-(trifluoromethyl)-3-pyridyl]ethyl]benzamide]
26 | 0.051 µM | – | O=C(NCC(c1cnc(C(F)(F)F)nc1)C1CCOCC1)c1ccccc1Cl (single isomer, unassigned; (+)) [(+)2-chloro-N-[2-tetrahydropyran-4-yl-2-[2-(trifluoromethyl)] [(+)2-chloro-N-[2-tetrahydropyran-4-yl-2-[2-(trifluoromethyl)pyrimidin-5-yl]ethyl]benzamide]
27 | – | 0.063 µM | O=C(NCC(CC1CC1)c1ccc(C(F)(F)F)nc1)c1ccccc1Cl (single isomer, unassigned; (+)) [Example 4a, (+)-2-Chloro-N-[3-cyclopropyl-2-[6-(tiifluoromethyl)-3-pyridyl]propyl]benzamide]
28 | 0.13 µM | – | Cc1ncc(C(CNC(=O)c2ccccc2Cl)CC2(C(F)(F)F)CC2)cn1 (single isomer, unassigned; (+)) [(+)2-chloro-N-[2-(2-methylpyrimidin-5-yl)-3-[1-(trifluoromet] [(+)2-chloro-N-[2-(2-methylpyrimidin-5-yl)-3-[1-(trifluoromethyl)cyclopropyl]propyl]benzamide]
29 | 0.46 µM | – | CC(CNC(=O)c1ccccc1Cl)(CC1CC1)c1cnc(C(F)(F)F)nc1 (single isomer, unassigned; (+)) [(+)2-chloro-N-[3-cyclopropyl-2-methyl-2-[2-(trifluoromethyl)] [(+)2-chloro-N-[3-cyclopropyl-2-methyl-2-[2-(trifluoromethyl)pyrimidin-5-yl]propyl]benzamide]
30 | 0.00086 µM | – | O=C(NCC(CC1CC1)c1cnc(C(F)(F)F)nc1)c1cccc(Cl)c1Cl (single isomer, unassigned; (-)) [(−)2,3-dichloro-N-[3-cyclopropyl-2-[2-(trifluoromethyl)pyrim] [(−)2,3-dichloro-N-[3-cyclopropyl-2-[2-(trifluoromethyl)pyrimidin-5-yl]propyl]benzamide]
31 | 0.0016 µM | – | COc1cccc(C(=O)NCC2(c3ccc(C(F)(F)F)nc3)CCC(F)(F)CC2)c1C [N-((4,4-difluoro-1-(6-(trifluoromethyl)pyridin-3-yl)cyclohexyl)methyl)-3-methoxy-2-methylbenzamide]
32 | 0.0023 µM | – | O=C(NCC(CC1CC1)c1ccc(C(F)(F)F)nc1)c1ccccc1Cl (single isomer, unassigned; (-)) [Example 4b, (−)-2-Chloro-N-[3-cyclopropyl-2-[6-(trifluoromethyl)-3-pyridyl]propyl]benzamide]
33 | 3 µM | – | O=C(NCC1(c2ccc(Cl)cc2)CCOCC1)c1cc(F)ccc1F [N-[4-(4-Chloro-phenyl)-tetrahydro-pyran-4-ylmethyl]-2,5-difluoro-benzamide]
